The results in this text go back to patent publication US20170008921A1, “C-3 NOVEL TRITERPENONE WITH C-28 REVERSE AMIDE DERIVATIVES AS HIV INHIBITORS” (HETERO RESEARCH FOUNDATION, priority 2015, published 2017).

The nature of series [1]: Single dose oral pharmacokinetic study. It is filed as in vivo. The note with it: mouse, Mice oral PK @30 mg/kg, plasma, vehicle 10% Solutol+20% PEG; for AUC(0-t): read-out: AUC0-t; for Cmax: read-out: Cmax. In short, it runs like this: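 Rats or mice dosed orally at 30 mg/kg in 10% Solutol+20% PEG. Acetonitrile precipitation, then LC-MS/MS quantification for PK parameters.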

Series [2] can be described thus: Cyto-toxicity (MTT assay). It is filed as cell-based.

Regarding `Cc1occc1C(=O)NC(C)(C)C(=O)N[C@@]12CC[C@]3(C)[C@H](CC[C@@H]4[C@@]5(C)CC[C@H](OC(=O)[C@H]6C[C@@H](C(=O)O)C6(C)C)C(C)(C)[C@@H]5CC[C@]43C)C1=C(C(C)C)C(=O)C2` [Example 30, (1R,3S)-3-((((3aR,5aR,5bR,7aR,9S,11aR,11bR,13aS)-1-isopropyl-5a,5b,8,8,11a-pentamethyl-3a-(2-methyl-2-(2-methylfuran-3-carboxamido)propan amido)-2-oxo-3,3a,4,5,5a,5b,6,7,7a,8,9,10,11,11a,11b,12,13,13a-octadecahydro-2H-cyclopenta[a]chrysen-9-yl)oxy)carbonyl)-2,2-dimethylcyclobutane-1-carboxylic acid], in series [1], the AUC(0-t) is 477 µg·h/mL and the Cmax came out at 23000 ng/mL. In series [2], this compound returned a viability at 4 days, 0.01 µM of 30%; a viability at 4 days, 0.1 µM of 3%; a viability at 4 days, 1 µM of 2%.

In the case of `CC(C)C1=C2[C@H]3CC[C@@H]4[C@@]5(C)CC[C@H](OC(=O)[C@H]6C[C@@H](C(=O)O)C6(C)C)C(C)(C)[C@@H]5CC[C@@]4(C)[C@]3(C)CC[C@@]2(NC(=O)C(C)(C)NC(=O)c2cccnc2N2CCOCC2)CC1=O` [Example 31, (1R,3S)-3-((((3aR,5aR,5bR,7aR,9S,11aR,11bR,13aS)-1-isopropyl-5a,5b,8,8,11a-pentamethyl-3a-(2-methyl-2-(2-morpholinonicotinamido)propan amido)-2-oxo-3,3a,4,5,5a,5b,6,7,7a,8,9,10,11,11a,11b,12,13,13a-octadecahydro-2H-cyclopenta[a]chrysen-9-yl)oxy)carbonyl)-2,2-dimethylcyclobutane-1-carboxylic acid], in series [1], the AUC(0-t) turned out to be 255 µg·h/mL and the Cmax is 18700 ng/mL. In series [2], this compound yielded a viability at 4 days, 0.001 µM of 81%; a viability at 4 days, 0.003 µM of 86%; a viability at 4 days, 0.01 µM of 54%.

`CC(C)C1=C2[C@H]3CC[C@@H]4[C@@]5(C)CC[C@H](OC(=O)[C@H]6C[C@@H](C(=O)O)C6(C)C)C(C)(C)[C@@H]5CC[C@@]4(C)[C@]3(C)CC[C@@]2(NC(=O)C2(NC(=O)c3ccc(Cl)cc3)CC2)CC1=O` [Example 37, (1R,3S)-3-((((3aR,5aR,5bR,7aR,9S,11aR,11bR,13aS)-3a-(1-(4-chlorobenzamido)cyclopropane-1-carboxamido)-1-isopropyl-5a,5b,8,8,11a-pentamethyl-2-oxo-3,3a,4,5,5a,5b,6,7,7a,8,9,10,11,11a,11b,12,13,13a-octadecahydro-2H-cyclopenta[a]chrysen-9-yl)oxy)carbonyl)-2,2-dimethylcyclobutane-1-carboxylic acid]: in series [1], the AUC(0-t) stood at 874 µg·h/mL and the highest concentration (Cmax) turned out to be 38800 ng/mL. In series [2], this compound displayed a viability at 4 days, 0.01 µM of 26%; a viability at 4 days, 0.1 µM of 4%; a viability at 4 days, 1 µM of 1%.

In the case of `Cc1ccc(C(=O)NC2(C(=O)N[C@@]34CC[C@]5(C)[C@H](CC[C@@H]6[C@@]7(C)CC[C@H](OC(=O)[C@H]8C[C@@H](C(=O)O)C8(C)C)C(C)(C)[C@@H]7CC[C@]65C)C3=C(C(C)C)C(=O)C4)CC2)cn1` [Example 38, (1R,3S)-3-((((3aR,5aR,5bR,7aR,9S,11aR,11bR,13aS)-1-isopropyl-5a,5b,8,8,11a-pentamethyl-3a-(1-(6-methylnicotinamido)cyclopropane-1-carbox amido)-2-oxo-3,3a,4,5,5a,5b,6,7,7a,8,9,10,11,11a,11b,12,13,13a-octadecahydro-2H-cyclopenta[a]chrysen-9-yl)oxy)carbonyl)-2,2-dimethylcyclobutane-1-carboxylic acid], in series [1], the AUC(0-t) amounted to 114 µg·h/mL and the Cmax amounted to 10100 ng/mL. In series [2], this compound came in with a viability at 4 days, 0.01 µM of 20%; a viability at 4 days, 0.1 µM of 9%; a viability at 4 days, 1 µM of 2%.

As to `Cc1ccc(C(=O)NC2(C(=O)N[C@@]34CC[C@]5(C)[C@H](CC[C@@H]6[C@@]7(C)CC[C@H](OC(=O)[C@H]8C[C@@H](C(=O)O)C8(C)C)C(C)(C)[C@@H]7CC[C@]65C)C3=C(C(C)C)C(=O)C4)CC2)cc1` [Example 40, (1R,3S)-3-((((3aR,5aR,5bR,7aR,9S,11aR,11bR,13aS)-1-isopropyl-5a,5b,8,8,11a-pentamethyl-3a-(1-(4-methylbenzamido)cyclopropane-1-carboxamido)-2-oxo-3,3a,4,5,5a,5b,6,7,7a,8,9,10,11,11a,11b,12,13,13a-octadecahydro-2H-cyclopenta[a]chrysen-9-yl)oxy)carbonyl)-2,2-dimethylcyclobutane-1-carboxylic acid], in series [1], the AUC(0-t) was 343 µg·h/mL and the Cmax is 20300 ng/mL. In series [2], this compound had a viability at 4 days, 0.01 µM of 26%; a viability at 4 days, 0.1 µM of 2%; a viability at 4 days, 1 µM of 1%.

On to `CC(C)C1=C2[C@H]3CC[C@@H]4[C@@]5(C)CC[C@H](OC(=O)[C@H]6C[C@@H](C(=O)O)C6(C)C)C(C)(C)[C@@H]5CC[C@@]4(C)[C@]3(C)CC[C@@]2(NC(=O)C2(NC(=O)c3ccc(Cl)cc3)CCC2)CC1=O` [Example 42, (1R,3S)-3-((((3aR,5aR,5bR,7aR,9S,11aR,11bR,13aS)-3a-(1-(4-chlorobenzamido)cyclobutane-1-carboxamido)-1-isopropyl-5a,5b,8,8,11a-pentamethyl-2-oxo-3,3a,4,5,5a,5b,6,7,7a,8,9,10,11,11a,11b,12,13,13a-octadecahydro-2H-cyclopenta[a]chrysen-9-yl)oxy)carbonyl)-2,2-dimethylcyclobutane-1-carboxylic acid], for which, in series [1], the AUC(0-t) came to 481 µg·h/mL and the Cmax is 22900 ng/mL. In series [2], the viability at 4 days, 0.01 µM was 27%; the viability at 4 days, 0.1 µM came out at 5%; the viability at 4 days, 1 µM turned out to be 4%.

As to `Cc1ccc(C(=O)NC2(C(=O)N[C@@]34CC[C@]5(C)[C@H](CC[C@@H]6[C@@]7(C)CC[C@H](OC(=O)[C@H]8C[C@@H](C(=O)O)C8(C)C)C(C)(C)[C@@H]7CC[C@]65C)C3=C(C(C)C)C(=O)C4)CCC2)cn1` [Example 43, (1R,3S)-3-((((3aR,5aR,5bR,7aR,9S,11aR,11bR,13aS)-1-isopropyl-5a,5b,8,8,11a-pentamethyl-3a-(1-(6-methylnicotinamido)cyclobutane-1-carboxamido)-2-oxo-3,3a,4,5,5a,5b,6,7,7a,8,9,10,11,11a,11b,12,13,13a-octadecahydro-2H-cyclopenta[a]chrysen-9-yl)oxy)carbonyl)-2,2-dimethylcyclobutane-1-carboxylic acid], in series [1], the AUC(0-t) was 320 µg·h/mL and the Cmax worked out at 31300 ng/mL. In addition, in series [2], the viability at 4 days, 0.01 µM amounted to 76%; the viability at 4 days, 0.1 µM is 26%; the viability at 4 days, 1 µM came to 3%.

Take `CC(C)C1=C2[C@H]3CC[C@@H]4[C@@]5(C)CC[C@H](OC(=O)[C@H]6C[C@@H](C(=O)O)C6(C)C)C(C)(C)[C@@H]5CC[C@@]4(C)[C@]3(C)CC[C@@]2(NC(=O)C2(NC(=O)c3ncccn3)CCC2)CC1=O` [Example 44, (1R,3S)-3-((((3aR,5aR,5bR,7aR,9S,11aR,11bR,13aS)-1-isopropyl-5a,5b,8,8,11a-pentamethyl-2-oxo-3a-(1-(pyrimidine-2-carboxamido)cyclobutane-1-carboxamido)-3,3a,4,5,5a,5b,6,7,7a,8,9,10,11,11a,11b,12,13,13a-octadecahydro-2H-cyclopenta[a]chrysen-9-yl)oxy)carbonyl)-2,2-dimethylcyclobutane-1-carboxylic acid]: in series [1], the AUC(0-t) is 154 µg·h/mL and the highest concentration (Cmax) amounted to 19800 ng/mL. In series [2], this compound registered a viability at 4 days, 0.001 µM of 84%; a viability at 4 days, 0.003 µM of 80%; a viability at 4 days, 0.01 µM of 58%.

For `CC(C)C1=C2[C@H]3CC[C@@H]4[C@@]5(C)CC[C@H](OC(=O)[C@H]6C[C@@H](C(=O)O)C6(C)C)C(C)(C)[C@@H]5CC[C@@]4(C)[C@]3(C)CC[C@@]2(NC(=O)C2(NC(=O)c3ccc(Cl)cc3)CCCC2)CC1=O` [Example 46, (1R,3S)-3-((((3aR,5aR,5bR,7aR,9S,11aR,11bR,13aS)-3a-(1-(4-chlorobenzamido)cyclopentane-1-carboxamido)-1-isopropyl-5a,5b,8,8,11a-pentamethyl-2-oxo-3,3a,4,5,5a,5b,6,7,7a,8,9,10,11,11a,11b,12,13,13a-octadecahydro-2H-cyclopenta[a]chrysen-9-yl)oxy)carbonyl)-2,2-dimethylcyclobutane-1-carboxylic acid], in series [1], the AUC(0-t) came to 836 µg·h/mL and the Cmax is 29500 ng/mL. In series [2], this compound registered a viability at 4 days, 0.01 µM of 52%; a viability at 4 days, 0.1 µM of 12%; a viability at 4 days, 1 µM of 4%.

For `Cc1ccc(C(=O)NC2(C(=O)N[C@@]34CC[C@]5(C)[C@H](CC[C@@H]6[C@@]7(C)CC[C@H](OC(=O)[C@H]8C[C@@H](C(=O)O)C8(C)C)C(C)(C)[C@@H]7CC[C@]65C)C3=C(C(C)C)C(=O)C4)CCCC2)cn1` [Example 47, (1R,3S)-3-((((3aR,5aR,5bR,7aR,9S,11aR,11bR,13aS)-1-isopropyl-5a,5b,8,8,11a-pentamethyl-3a-(1-(6-methylnicotinamido)cyclopentane-1-carboxamido)-2-oxo-3,3a,4,5,5a,5b,6,7,7a,8,9,10,11,11a,11b,12,13,13a-octadecahydro-2H-cyclopenta[a]chrysen-9-yl)oxy)carbonyl)-2,2-dimethylcyclobutane-1-carboxylic acid], in series [1], the AUC(0-t) was found to be 538 µg·h/mL and the Cmax stood at 23600 ng/mL. In series [2], this compound registered a viability at 4 days, 0.01 µM of 75%; a viability at 4 days, 0.1 µM of 14%; a viability at 4 days, 1 µM of 4%.
